Data set [1] can be described thus: Pharmacokinetic analysis after a single dose by oral gavage. Particulars: for AUC(0-inf) / Cmax / Tmax / half-life / Vd/F: female, NOD/SCID, mouse, plasma; for half-life: read-out: Terminal t½ (converted); for Vd/F: read-out: Vz/F. It counts as in vivo, NOD/SCID mice. On the procedure: We evaluated PK parameters after administration of a single dose of HHT by oral gavage to mice of 0.4 mg/kg, 0.7 mg/kg and 2 mg/kg (Table 1). […] Treatment with 0.4 mg/kg HTT by gavage most closely approximated human exposures. […] Given our in vitro studies, we sought to sustain 50 nM drug levels and mice were dosed with 0.7 mg/kg HHT given by gavage twice daily.
Female NOD/SCID mice (6-7 weeks) were administered homoharringtonine (HHT) by oral gavage. DMSO was used to wet the compound which was subsequently diluted in normal saline (pH 7.2) prior to administration (final DMSO < 5%). Animals were sacrificed in duplicate by inhalation overdose of CO2 at varying times post-dose and bled by cardiac puncture using acidified citrate dextrose (ACD) as the anticoagulant. Plasma was isolated after centrifugation at 9,600 x g for 10 minutes at 4°C. Protein was precipitated from 100 μl of plasma with 100 μl of acetonitrile containing 100 ng/ml of n-benzylbenzamide, which was used as an internal standard (IS), and 0.2% formic acid. After extensive vortexing, samples were incubated for 10 minutes at RT and spun twice at 16,100 x g for 5 minutes. The supernatant was evaluated by LC-MS/MS using a Shimadzu (Columbia, MD) Prominence LC coupled to an AB Sciex (Framingham, MA) 3200 Qtrap mass spectrometer. Extraction conditions were optimized prior to PK analysis for efficient and reproducible recovery over a three log range of concentrations. Analytical standards and quality control samples were prepared in a similar fashion by spiking commercial CD-1 mouse plasma (Bioreclamation, Westbury, NY) with known quantities of HHT. Chromatography conditions were as follows: an Agilent (Santa Clara, CA) C18 XDB, 5 micron packing, 50 × 4.6 mm size column was used for reverse phase chromatography. Buffer A consisted of dH2O + 0.1% formic acid and Buffer B consisted of methanol + 0.1% formic acid. Gradient conditions utilized were: 0.01-1.0 min 3% B, 1.0-1.5 min gradient to 100% B,1.5-3.0 min 100% B, 3.0-3.1 min gradient to 3% B, 3.1-4.1 min 3% B. HHT was detected as the 546.3 to 298.3 transition, and the IS (n-benzylbenzamide) as the 212.1 to 91.1 transition. Data were analyzed using Analyst software (AB Sciex.) A value 3x above the signal obtained in the blank plasma was designated as the limit of detection (LOD). The limit of quantitation (LOQ) was defined as the lowest concentration on the standard curve at which back calculation yielded a concentration within 20% of the theoretical value and above the LOD signal. The LOQ for HHT was 0.5 ng/ml. Pharmacokinetic properties were evaluated using the noncompartmental analysis tool in WinNonlin (Certara, Corp., St. Louis, MO). Sparse sampling was used for data analysis. Terminal half-life was calculated as the ln(2)/λz where λz is a first order rate constant associated with the terminal (log-linear) portion of the curve. It is estimated by linear regression of time vs. log concentration by the software for three or more of the final nonzero data points. Tmax (time to maximal drug concentration) and Cmax (maximal drug concentration) were determined by visual inspection. Area under the concentration time curve (AUCinf) from time 0 to infinity was determined by linear trapezoidal analysis. Apparent Volume of Distribution (Vz/F) is based on the terminal phase and is calculated as Dose/λz*AUCinf while Apparent Clearance (CL/F) is calculated as Dose/AUCinf. Calculation of Absolute Vz and CL requires knowledge of oral bioavailability (F) which is calculated as AUCoral/AUCiv X Dose iv/Doseoral but was not determined here because an IV PK was not performed.

Data set [2] relates to 786-O VHL^mCh (VHL-reconstituted) cells. Kind of data set: Western blot for Caspase 9 and Bcl-xL. It counts as cell-based, human. Particulars: 24 hours. On the procedure: (§1) Figure 2 Homoharringtonine (HHT) preferentially induces cell death in VHL-deficient 786-O cells A. 786-O cells with VHL mutation (green) or with VHL-reconstituted (red) were treated with different concentrations of HHT (0, 25, 50, or 100 nM) for 0, 6, 12, 24, 36, or 48 hours, and cell death was measured by trypan blue exclusion assay (n = 3 for each concentration and time point; *p < 0.05, **p < 0.001, ***p < 0.0001 between 786-O EV cells and 786-O with VHL reconstituted at the same concentration and time point). B. […] Blots were probed for Bcl-xL and Caspase 9, and α-Tubulin as loading control. Arrow indicates the cleaved Caspase 9 product.
(In general: A western blot detects proteins with antibodies after separation by electrophoresis.)

Data set [3] concerns 786-O EV^GFP (VHL-deficient) cells. The data set can be described thus: Western blot for Caspase 9 and Bcl-xL. It counts as cell-based, human. On the procedure:
as §1

Molecules are shown by their SMILES. Read-outs that look alike come from different tables or passages of the source.

With `COC(=O)C[C@](O)(CCCC(C)(C)O)C(=O)O[C@@H]1C(OC)=C[C@]23CCCN2CCc2cc4c(cc2[C@H]13)OCO4` [HHT, homoharringtonine], in data set [1] (0.4 mg/kg oral gavage, mice), the Cl/F is 32.7 mL/h; the area under the curve AUC(0-inf) (in general, total exposure, with the tail of the curve extrapolated) is 251 ng·h/mL; the highest level (Cmax) was 28.8 ng/mL; the Tmax (as a rule, the time at which the peak concentration occurs) turned out to be 0.17 h. In addition, in data set [1] (0.4 mg/kg oral gavage, mice), the half-life was 1.86 h and the Vd/F was determined as 0.0877 L. In data set [1] (0.7 mg/kg oral gavage, mice), the Cl/F was 30.5 mL/h, the AUC(0-inf) is 440 ng·h/mL, the Cmax (usually the highest concentration seen after dosing) came to 57.8 ng/mL and the Tmax is 0.17 h. Also, in data set [1] (0.7 mg/kg oral gavage, mice), the half-life was 2.8 h and the Vd/F came out at 0.123 L. Further, the “time HHT concentrations above 50 nM were sustained” value in data set [1] (0.7 mg/kg oral gavage, mice, 50 nM equivalent to 27.3 ng/mL) is ~ 6 hours. Also, in data set [1] (2 mg/kg oral gavage, mice), the Cl/F was 46.6 mL/h, the AUC(0-inf) stood at 905 ng·h/mL, the Cmax worked out at 97.2 ng/mL and the Tmax worked out at 1.5 h. Also, in data set [1] (2 mg/kg oral gavage, mice), the half-life is 6.74 h and the Vd/F turned out to be 0.453 L. Besides, in data set [1] (two lower doses (0.4 and 0.7 mg/kg), first time point sampled), the “time at which Cmax was reached” value was 10 min. The Bcl-xL expression result in data set [2] is “upregulated”. Besides, the “caspase 9 cleavage” value in data set [3] (50 nM and 100 nM, within 12 hours) is listed as “observed”. For the same molecule, the Bcl-xL expression entry in data set [3] (24 hours) is “not upregulated”.

(Values after paper PMC4627284, “High-throughput simultaneous screen and counterscreen identifies homoharringtonine as synthetic lethal with von Hippel-Lindau loss in renal cell carcinoma” (Oncotarget, 2015).)
